Nine molecules from US20060019958A1, “Immunity-related protein kinase inhibitors” (priority 2002, published 2006) can be followed below.

The structures appear in SMILES notation.

Series [1] relates to IκBα phosphorylation in HepG2 cells. Kind of series: Detection of phosphorylated IκBα by Western blot method under TNFα stimulation. The class given is cell-based. As to conditions: 40 ng/ml human TNFα, 20 μM MG-132. As for the experimental part:
Detection of Phosphorylated IκBα by Western Blot Method
[…] After 45 minutes, 40 ng/ml of human TNFα was further added. Ten minutes after the addition of the TNFα, the cells were collected, and a cell lysate was prepared by using a tip-type ultrasonic processor (Dr.Hielsher; UP-50H). After the measurement of a protein concentration using a BCA protein assay kit by Pierce (BSA standard), 30 μg of the cell lysate was applied to each lane of 12% SDS slab gel (mini gel) and an electrophoresis was carried out. After the electrophoresis, a detection of phorphorylated IκBα by Western blot method was carried out using anti-phosphorylated IκBα (Ser32) antibody (Cell Signaling) as a primary antibody and […] as a secondary antibody.
(In general: In western blotting, separated proteins are transferred to a membrane and probed.)

Series [2] has as its system NF-κB activation by forced expression of MEKK-1 in HeLa cells. Kind of series: Inhibition of NF-κB activation by forced expression of MEKK-1 (luciferase reporter assay). The class given is cell-based, human. As to conditions: MEKK-1 forced expression, 24 hours. The text has this: Measurement of Inhibition of NF-κB Activation by Forced Expression of MEKK-1
Using a transfection reagent(Effectene; QIAGEN), human uterine cancer cell strain HeLa was cotransfected with a plasumid (pNF κB-Luc Reporter Plasmid: STRATAGENE) integrated with an oligonucleotide having five tandem copies of NF-κB binding sequences(TGGGGACTTTCCGC) on an upstream region of the firefly luciferase gene(Luc) and the MEKK-1 gene-contained expression vector(pFC-MEKK: STRATAGENE) according to the QIAGEN's protocol, and the cells were incubated for 24 hours. After incubation in the presence or absence of a test compound for 24 hours, intracellular luciferase activity was measured by using PicaGene LT(TOYO INK MFG Co., Ltd.) and a chemical luminescence measurement apparatus(SPECTRAFluor Plus; TECAN). The inhibitory ratio was measured as a ratio relative to the value of the luciferase activity in the absence of the test compound.
In general terms: Reporter assays use an easily measured gene product as a stand-in for the process of interest.

`CC(C)(C)c1nc(NC(=O)c2cc(Br)ccc2O)sc1N1CCN(c2ccccc2)CC1` [compound 201, 5-Bromo-N-{4-[(1,1-dimethyl)ethyl]-5-(4-phenylpiperazin-1-yl)thiazol-2-yl}-2-hydroxybenzamide]: the “Inhibition Ratio of I κ B phosphorylation(%)” value in series [1] (Drug Concentration 2 μg/ml) is listed as 57.4%.

In the case of `CC(C)(C)C(=O)c1sc(NC(=O)c2cc(Cl)ccc2O)nc1C(C)(C)C` [compound 195, 5-Chloro-N-{4-[(1,1-dimethyl)ethyl]-5-[(2,2-dimethyl)propionyl]thiazol-2-yl}-2-hydroxybenzamide], the “Inhibition Ratio of I κ B phosphorylation(%)” value in series [1] (Drug Concentration 2 μg/ml) is 63.5%.

Consider `CC(C)(C)c1ccc(O)c(C(=O)Nc2cc(C(F)(F)F)cc(C(F)(F)F)c2)c1` [Compound No. 56, N-[3,5-Bis(trifluoromethyl)phenyl]-5-[(1,1-dimethyl)ethyl]-2-hydroxybenzamide], for which the “Inhibition Ratio of I κ B phosphorylation(%)” value in series [1] (Drug Concentration 2 μg/ml) turned out to be 31.3%.

With `O=C(Nc1cc(C(F)(F)F)cc(C(F)(F)F)c1)c1cc(Cl)ccc1O` [Compound No. 50, N-[3,5-Bis(trifluoromethyl)phenyl]-5-chloro-2-hydroxybenzamide], the “Inhibitory Ratio of NF-κB Activation(%)” value in series [2] (Drug Concentration 1 μg/ml) came to 92.6%; in series [2] (Drug Concentration 10 μg/ml), 93.2%. Also, in series [1] (Drug Concentration 2 μg/ml), the “Inhibition Ratio of I κ B phosphorylation(%)” value is on record as 43.0%.

On to `CC(C)(C)c1nc(NC(=O)c2cc(Br)ccc2O)sc1N1CCOCC1` [compound 199, 5-Bromo-N-{4-[(1,1-dimethyl)ethyl]-5-morpholinothiazol-2-yl}-2-hydroxybenzamide], for which, in series [1] (Drug Concentration 2 μg/ml), the “Inhibition Ratio of I κ B phosphorylation(%)” value is 47.9%.

For the molecule `COc1cc(/C=C/C(=O)CC(=O)/C=C/c2ccc(O)c(OC)c2)ccc1O` [curcumin], the “Inhibition Ratio of I κ B phosphorylation(%)” value in series [1] (Drug Concentration 100 μM) stood at 51.6%.

Consider `O=C(Nc1cc(C(F)(F)F)cc(C(F)(F)F)c1)c1cc(-n2cccc2)ccc1O` [Compound No. 71], for which the “Inhibition Ratio of I κ B phosphorylation(%)” value in series [1] (Drug Concentration 2 μg/ml) stood at 29.5%.

`O=C(Nc1cc(C(F)(F)F)cc(C(F)(F)F)c1)c1cc(-c2ccccc2)ccc1O` [Compound No. 67]: the “Inhibition Ratio of I κ B phosphorylation(%)” value in series [1] (Drug Concentration 2 μg/ml) turned out to be 43.8%.

Broadly, the melting point is the temperature of the solid-liquid transition. `CC(=O)Oc1ccccc1C(=O)Nc1cc(Cl)cc(Cl)c1` [compound 172, 2-acetoxy-N-(3,5-dichlorophenyl)benzamide] had a melting point of 218 to 219 °C.
